Values of other authors, collected in US20120135104A1, “Enhanced Absorption of Omega Fatty Acid Oils” (priority 2010, published 2012).

Conditions: single emulsifier

## polyoxyethylene sorbitan monooleate
  HLB value: about 15
